Test results reported in ChEMBL document CHEMBL5325458, “Growth factors and their peptide mimetics for treatment of traumatic brain injury” (2023).
Where a SMILES comes first, the peptide text is derived from it.

What was measured:
[1] = target: Hepatocyte growth factor (Homo sapiens) (UniProt P14210); test: Activation of HGF in human A549 cells assessed as increase in Met phosphorylation; type: cell-based
[2] = target: BDNF/NT-3 growth factors receptor (Homo sapiens) (UniProt Q16620); test: Agonist activity at human TrkB receptor in HEK293 cells assessed as increase in TrkB phosphorylation at 0.001 to 1 uM relative to control; type: cell-based; conditions: filed as agonist, dose 0.001-1 µM
[3] = target: BDNF/NT-3 growth factors receptor (Homo sapiens) (UniProt Q16620); test: Agonist activity at human TrkB receptor in HEK293 cells assessed as increase in ERK phosphorylation at 0.001 to 1 uM relative to control; type: cell-based; conditions: filed as agonist, dose 0.001-1 µM
Rattus norvegicus [4] = test: Neuroprotective activity against medial cerebral artery occlusion induced cerebral ischemia rat model assessed decrease in infarct volume at 1 mg/kg, ip qd administered 4 hrs post reperfusion and measured after 6 days by TTC staining based assay; type: functional; parameters: scale not given: the % may be the effect or the level left; conditions: time 144 hrs
Rattus norvegicus [5] = test: Neuroprotective activity against medial cerebral artery occlusion induced cerebral ischemia rat model assessed decrease in infarct volume at 0.1 mg/kg, ip qd administered 4 hrs post reperfusion and measured after 6 days by TTC staining based assay; type: functional; parameters: scale not given: the % may be the effect or the level left; conditions: time 144 hrs
[6] = Neuroprotective activity against chick primary sensory neuron assessed as inhibition of BDNF-mediated neuronal survival; type: functional, Gallus gallus
[7] = Induction of TrkA phosphorylation in rat PC12 cells at 3 uM measured after 10 to 30 mins by Western blotting analysis relative to control; type: functional, PC-12; conditions: time 10-30 min

Sequence of BDNF/NT-3 growth factors receptor (Homo sapiens) (Q16620 32-822 limits assumed): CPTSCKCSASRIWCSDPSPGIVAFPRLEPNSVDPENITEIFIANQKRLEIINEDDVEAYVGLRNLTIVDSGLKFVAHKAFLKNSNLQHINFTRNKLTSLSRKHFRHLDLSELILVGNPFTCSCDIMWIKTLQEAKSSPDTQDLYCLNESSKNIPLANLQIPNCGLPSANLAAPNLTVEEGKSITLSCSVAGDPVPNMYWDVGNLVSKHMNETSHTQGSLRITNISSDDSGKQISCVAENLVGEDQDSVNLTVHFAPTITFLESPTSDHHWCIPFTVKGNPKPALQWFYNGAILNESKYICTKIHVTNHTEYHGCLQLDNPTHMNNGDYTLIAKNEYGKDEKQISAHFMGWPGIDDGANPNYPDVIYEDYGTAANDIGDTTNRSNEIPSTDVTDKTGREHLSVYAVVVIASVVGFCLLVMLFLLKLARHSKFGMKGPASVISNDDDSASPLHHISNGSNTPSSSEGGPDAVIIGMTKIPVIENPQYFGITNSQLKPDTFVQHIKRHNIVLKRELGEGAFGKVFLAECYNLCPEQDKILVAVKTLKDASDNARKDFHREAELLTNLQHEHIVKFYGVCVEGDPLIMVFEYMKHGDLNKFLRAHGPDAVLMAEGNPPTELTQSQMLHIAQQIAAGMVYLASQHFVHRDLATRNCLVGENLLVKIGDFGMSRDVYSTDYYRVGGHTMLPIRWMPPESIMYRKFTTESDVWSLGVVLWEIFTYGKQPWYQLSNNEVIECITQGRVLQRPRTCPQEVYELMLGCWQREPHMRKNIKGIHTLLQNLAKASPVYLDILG
Sequence of Hepatocyte growth factor (Homo sapiens) (P14210 32-494 limits assumed): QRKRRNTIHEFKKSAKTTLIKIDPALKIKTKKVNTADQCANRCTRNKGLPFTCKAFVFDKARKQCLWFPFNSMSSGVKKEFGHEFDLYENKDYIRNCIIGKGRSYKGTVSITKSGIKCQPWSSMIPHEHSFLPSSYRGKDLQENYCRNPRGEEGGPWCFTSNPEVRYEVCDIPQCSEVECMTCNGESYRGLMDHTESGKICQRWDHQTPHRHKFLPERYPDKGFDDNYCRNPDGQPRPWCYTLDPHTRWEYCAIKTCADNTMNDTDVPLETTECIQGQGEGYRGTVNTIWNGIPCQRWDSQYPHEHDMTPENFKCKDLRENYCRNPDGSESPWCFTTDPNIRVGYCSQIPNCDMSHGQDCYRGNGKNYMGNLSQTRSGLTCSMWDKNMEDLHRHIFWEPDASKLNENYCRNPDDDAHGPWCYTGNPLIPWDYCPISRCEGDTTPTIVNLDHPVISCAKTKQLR
Sequence of Hepatocyte growth factor (Homo sapiens) (P14210 495-728 limits assumed): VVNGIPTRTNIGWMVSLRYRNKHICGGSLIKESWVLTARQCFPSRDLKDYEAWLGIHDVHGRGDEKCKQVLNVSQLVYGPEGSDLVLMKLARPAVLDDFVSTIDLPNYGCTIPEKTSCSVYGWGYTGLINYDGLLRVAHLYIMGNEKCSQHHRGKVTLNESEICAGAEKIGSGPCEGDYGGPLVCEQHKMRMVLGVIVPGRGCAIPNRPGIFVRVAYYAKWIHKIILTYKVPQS

H-VVNGIPTR-OH
Activity [1]: 25%

CSCC[C@H](NC(=O)[C@H](CCCNC(=N)N)NC(=O)[C@@H]1CCCN1C(=O)[C@H](CC(C)C)NC(=O)[C@H](CO)NC(=O)[C@H](CC(N)=O)NC(=O)CC(N)CC(=O)[C@H](CC(N)=O)NC(=O)[C@H](CO)NC(=O)[C@H](CC(C)C)NC(=O)[C@@H]1CCCN1C(=O)[C@H](CCCNC(=N)N)NC(=O)[C@H](CCSC)NC(=O)[C@@H]1CSSC[C@H](C(N)=O)C(=O)N[C@@H](CC(C)C)C(=O)N[C@@H](CCCNC(=N)N)C(=O)N[C@@H](Cc2c[nH]c3ccccc23)C(=O)N[C@@H](CCCNC(=N)N)C(=O)N[C@@H](CCCNC(=N)N)C(=O)N[C@@H](C(C)C)C(=O)N[C@@H](CCCNC(=N)N)C(=O)N1)C(=O)N[C@H]1CSSC[C@@H](C(=O)N[C@@H](Cc2ccccc2)C(=O)O)NC(=O)[C@H](CC(C)C)NC(=O)[C@H](CCCNC(=N)N)NC(=O)[C@H](Cc2c[nH]c3ccccc23)NC(=O)[C@H](CCCNC(=N)N)NC(=O)[C@H](CCCNC(=N)N)NC(=O)[C@H](C(C)C)NC(=O)[C@H](CCCNC(=N)N)NC1=O (some centres not stated) (HELM PEPTIDE1{L.R.W.R.R.V.R.C.M.R.P.L.S.[NC(=O)C[C@H](N[*:1])C(=O)CC(N)CC(=O)[*:2]].N.S.L.P.R.M.C.R.V.R.R.W.R.L.C.F}|CHEM1{[NC(=O)[C@@H](CS[*:2])C(=O)[*:1]]}$PEPTIDE1,PEPTIDE1,21:R3-29:R3|PEPTIDE1,CHEM1,1:R1-1:R1|PEPTIDE1,CHEM1,8:R3-1:R2$$$V2.0)
Activity [2]: 50% | Activity [3]: 50%

NCCCC[C@H](NC(=O)[C@H](Cc1c[nH]cn1)NCCCCCCNC(=O)[C@H](Cc1c[nH]cn1)NC(=O)[C@H](CCCCN)NC(=O)CCCO)C(=O)CCCO
Activity (Rattus norvegicus [4]): 25%

NCCCC[C@H](NCCCCCCNC(=O)[C@H](CCCCN)NC(=O)[C@H](CO)NC(=O)CCC(=O)O)C(=O)N[C@@H](CO)C(=O)CCC(=O)O
Activity (Rattus norvegicus [5]): ~66%

CC(C)C[C@@H]1NC(=O)[C@H](CCC(N)=O)NC(=O)CNC(=O)[C@H](CCCCN)NC(=O)[C@H](CO)NC(=O)[C@H](C(C)C)NC(=O)[C@@H]2CCCN2C(=O)[C@H](C(C)C)NC(=O)[C@@H](N)CSSC[C@@H](C(=O)O)NC1=O (HELM PEPTIDE1{C.V.P.V.S.K.G.Q.L.C}$PEPTIDE1,PEPTIDE1,1:R3-10:R3$$$V2.0)
inhibition (INH) [6]: 50%

CC[C@H](C)[C@@H]1NC(=O)[C@H](CC(=O)O)NC(=O)[C@H]([C@@H](C)O)NC(=O)[C@H](N)CSSC[C@H](C(=O)N[C@H](C(=O)NCC(=O)N[C@@H](C)C(=O)N[C@H]2CSSC[C@@H](C(=O)O)NC(=O)[C@H](CCC(N)=O)NC(=O)[C@H](CCCCN)NC(=O)CNC(=O)[C@H](CC(=O)O)NC2=O)[C@@H](C)O)NC(=O)[C@H](CCCCN)NC(=O)CNC(=O)[C@H](CCCCN)NC1=O
Activity [7]: ~75%
